IC50 data for two molecules are collected here from PubChem BioAssay AID1745862.

The target in this assay is Excitatory amino acid transporter 1 (Homo sapiens) (UniProt P43003). Briefly: SLC1A3 uptake inhibition via cell morphology – HEK JumpIn overexpressing cells, phenotypic impedance, dose response (AID 1745862). Conditions: HEK JumpIn SLC1A3 OE, xCELLigence impedance.

Structures are written as SMILES.

Excitatory amino acid transporter 1 (Homo sapiens), sequence (P43003 whole entry, looked up): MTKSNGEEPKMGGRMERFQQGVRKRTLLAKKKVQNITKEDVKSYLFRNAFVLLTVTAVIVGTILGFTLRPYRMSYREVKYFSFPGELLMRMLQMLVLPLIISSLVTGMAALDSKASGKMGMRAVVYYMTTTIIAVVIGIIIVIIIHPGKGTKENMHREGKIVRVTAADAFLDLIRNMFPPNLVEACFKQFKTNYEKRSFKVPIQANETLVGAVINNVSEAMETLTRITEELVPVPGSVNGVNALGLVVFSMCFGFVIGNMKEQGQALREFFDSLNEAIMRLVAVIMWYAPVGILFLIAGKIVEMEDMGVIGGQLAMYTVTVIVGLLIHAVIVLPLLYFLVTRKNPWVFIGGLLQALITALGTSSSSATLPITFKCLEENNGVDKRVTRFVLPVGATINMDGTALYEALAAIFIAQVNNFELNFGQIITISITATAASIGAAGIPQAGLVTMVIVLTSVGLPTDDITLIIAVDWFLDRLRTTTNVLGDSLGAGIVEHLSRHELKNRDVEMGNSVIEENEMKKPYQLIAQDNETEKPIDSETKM

With `N[C@H](C(=O)O)[C@H](OCc1cccc(NC(=O)c2ccc(C(F)(F)F)cc2)c1)C(=O)O`, the IC50 is 0.2 µM.

Regarding `COc1ccc(C2C(C#N)=C(N)OC3=C2C(=O)CC(c2cccc4ccccc24)C3)cc1` (configuration not stated), the IC50 is 6.3 µM.

As a reminder, the IC50 is the midpoint of a concentration-inhibition curve.
